Measured values taken from patent US20250313533A1, “QUINOLINE CARBOXYLIC ACID ESTER COMPOUND AND PREPARATION METHOD AND USE THEREOF” (priority 2019, published 2025).

Tests used:
[1] = system: bacterial wilt in tobacco; experiment: whole plant or invertebrate; settings: Nicotiana tabacum, read-out: efficacy against bacterial wilt in tobacco
[2] = system: pathogenic bacteria causing stem rot in sweet potatoes; experiment: In vitro bactericidal activity, stem rot in sweet potatoes; format: cell-based, dikia; settings: read-out: inhibitory rate; for inhibition at 1 ppm: dosage 1 ppm; for inhibition at 5 ppm: dosage 5 ppm
Procedure: (§1) Under aseptic conditions, equal amounts of NB culture medium were added to test tubes, and fixed amounts of the sample solutions were pipetted into the above test tubes in an ascending order of concentrations, respectively. The mixtures were well mixed and added with equal amounts of a bacterial suspension in log phase.
(§2) Each step of the procedure was repeated 4 times. After mixing, the mixture samples were incubated in the dark in a shaking incubator at 25° C. The OD values were measured when the bacteria were in log phase.

[3] = system: pathogenic bacteria causing fruit blotch in watermelons; experiment: In vitro bactericidal activity, fruit blotch in watermelons; format: cell-based, acidovorax; settings: read-out: inhibitory rate; for inhibition at 1 ppm: dosage 1 ppm; for inhibition at 5 ppm: dosage 5 ppm
Procedure: as §1, §2

[4] = system: soft rot in Chinese cabbages; experiment: whole plant or invertebrate; settings: 48 h, read-out: efficacy against soft rot in Chinese cabbages
black shank in potatoes = experiment: Living crops in vivo protective activity, potatoes (root irrigation); settings: Solanum tuberosum, read-out: efficacy against black shank in potatoes; for pest or weed control at 5 ppm: dosage 5 ppm; for pest or weed control at 10 ppm: dosage 10 ppm
Procedure: Root irrigation was carried out on the potatoes for tests according to the designed concentration of the agents. The dosage for each plant was 200 mL and was kept consistent (also for the control). The black shank bacteria were inoculated on the second day after the application. The results were investigated according to the disease condition.

[5] = system: pathogenic bacteria causing black shank in potatoes; experiment: In vitro bactericidal activity, black shank in potatoes; format: cell-based; settings: read-out: inhibitory rate; for inhibition at 1 ppm: dosage 1 ppm; for inhibition at 5 ppm: dosage 5 ppm
Procedure: as §1, §2

[6] = system: pathogenic bacteria causing bacterial wilt in tobacco; experiment: whole plant or invertebrate; format: cell-based, ralstonia; settings: read-out: inhibitory rate
[7] = system: stem rot in sweet potatoes; experiment: whole plant or invertebrate; settings: read-out: efficacy against stem rot in sweet potatoes
[8] = system: pathogenic bacteria causing bacterial blight in rice; experiment: whole plant or invertebrate; format: cell-based, xanthomonas; settings: read-out: inhibitory rate
bacterial blight in rice = experiment: whole plant or invertebrate; settings: Oryza sativa, read-out: efficacy against bacterial blight in rice
cucumber seedlings = experiment: Safety for plant growth after application; format: in vivo; settings: dosage 200 ppm
From the text: (§3) Taking indoor potted cucumber seedlings as an example, the influence of the compound disclosed herein on growth rate of plant height, chlorophyll content, leaf area, etc. of crops was mainly evaluated.
The results of safety and health-care effect of the compounds of the present disclosure on cucumber seedlings are shown in the following table 1: […]

[9] = system: pathogenic bacteria causing bacterial wilt in cassava; experiment: organism not typed; format: cell-based; settings: read-out: inhibitory rate
[10] = system: pathogenic bacteria causing fire blight in pears; experiment: In vitro bactericidal activity, fire blight in pears; format: cell-based, erwinia; settings: Erwinia, read-out: inhibitory rate; for inhibition at 1 ppm: dosage 1 ppm; for inhibition at 5 ppm: dosage 5 ppm
Procedure: as §1, §2

[11] = system: pathogenic bacteria causing bacterial angular leaf spot in cucumbers; experiment: In vitro bactericidal activity, bacterial angular leaf spot in cucumbers; format: cell-based, pseudomonas; settings: read-out: inhibitory rate; for inhibition at 1 ppm: dosage 1 ppm; for inhibition at 5 ppm: dosage 5 ppm
Procedure: as §1, §2

[12] = system: indoor potted cucumber seedlings; experiment: Effect of improving growth and development of crops; format: in vivo; parameters: Rate of growth rate increase (%): concentration or dose not given beside the values; settings: versus blank control; for Rate of chlorophyll content increase (%) / Rate of leaf area increase (%): 14 days after application; for Rate of growth rate increase (%): plant height 14 days after application; for Rate of leaf area increase (%): second leaf
Procedure: as §3
The plant heights of plants before application and 14 days after the application were measured.
The growth rates were calculated according to formula (1)
The rates of the growth rate increase (%) were calculated according to formula (2)
The longitudinal and transverse diameters (i.e., leaf length and leaf width, respectively, wherein the leaf length is the distance from the base to the tip of a leaf, and leaf width is the measured value of the upper shoulder width of the leaf) of the second leaf of plants before application and 14 days after the application were measured.
The leaf areas were calculated according to formula (3)
The leaf area increases were calculated according to formula (4)
The rates of the leaf area increases were calculated according to formula (5)
The chlorophyll contents of leaves were measured by using a chlorophyll measuring instrument (model: SPAD-520 Plus).
The chlorophyll content increases were calculated according to formula (6)
The rates of the chlorophyll content increases were calculated according to formula (7)

[13] = system: fruit blotch in watermelons; experiment: whole plant or invertebrate; settings: read-out: efficacy against fruit blotch in watermelons
[14] = system: pathogenic bacteria causing black rot in Chinese cabbages; experiment: In vitro bactericidal activity, black rot in Chinese cabbages; format: cell-based, xanthomonas; settings: Xanthomonas, read-out: inhibitory rate; for inhibition at 1 ppm: dosage 1 ppm; for inhibition at 5 ppm: dosage 5 ppm
Procedure: as §1, §2

| Compound | pest or weed control at 5 ppm [1] [%] | pest or weed control at 10 ppm [1] [%] | inhibition at 1 ppm [2] [%] | inhibition at 5 ppm [2] [%] | inhibition at 1 ppm [3] [%] | inhibition at 5 ppm [3] [%] | pest or weed control at 5 ppm [4] [%] | pest or weed control at 10 ppm [4] [%] | pest or weed control at 5 ppm (black shank in potatoes) [%] | pest or weed control at 10 ppm (black shank in potatoes) [%] | inhibition at 1 ppm [5] [%] | inhibition at 5 ppm [5] [%] | inhibition at 1 ppm [6] [%] | inhibition at 5 ppm [6] [%] | pest or weed control at 5 ppm [7] [%] | pest or weed control at 10 ppm [7] [%] | inhibition at 1 ppm [8] [%] | inhibition at 5 ppm [8] [%] | pest or weed control at 5 ppm (bacterial blight in rice) [%] | pest or weed control at 10 ppm (bacterial blight in rice) [%] | further results |
| --- | --- | --- | --- | --- | --- | --- | --- | --- | --- | --- | --- | --- | --- | --- | --- | --- | --- | --- | --- | --- | --- |
| COCCOC(=O)c1cn(C2CC2)c2ccc(F)cc2c1=O [Compound 10, 2-methoxyethyl 1-cyclopropyl-6-fluoro-4-oxo-1,4-dihydroquinoline-3-carboxylate] | ≥ 90 | ≥ 90 | ≥ 90 | ≥ 90 | ≥ 90 | ≥ 90 | ≥ 80 | ≥ 90 | ≥ 80 | ≥ 90 | ≥ 80 | ≥ 90 | ≥ 80 | ≥ 90 | ≥ 90 | ≥ 90 | ≥ 80 | ≥ 90 | ≥ 80 | ≥ 90 | safety for plant growth (discoloration, necrosis, wilt, malformation) (cucumber seedlings): safe for plant growth; inhibition at 1 ppm [9]: ≥ 90%; inhibition at 5 ppm [9]: ≥ 90%; inhibition at 1 ppm [10]: ≥ 90%; inhibition at 5 ppm [10]: ≥ 90%; inhibition at 1 ppm [11]: ≥ 90%; inhibition at 5 ppm [11]: ≥ 90%; Rate of chlorophyll content increase (%) [12]: 13%; Rate of growth rate increase (%) [12]: 9%; Rate of leaf area increase (%) [12]: 10%; pest or weed control at 5 ppm [13]: ≥ 90%; pest or weed control at 10 ppm [13]: ≥ 90%; inhibition at 1 ppm [14]: ≥ 90%; inhibition at 5 ppm [14]: ≥ 90% |
| COCOC(=O)c1cn(C2CC2)c2cc(Cl)c(F)cc2c1=O [Compound 143] | ≥ 90 | ≥ 90 | ≥ 80 | ≥ 90 | ≥ 80 | ≥ 90 | ≥ 80 | ≥ 90 | ≥ 80 | ≥ 90 | ≥ 80 | ≥ 90 | ≥ 80 | ≥ 90 | ≥ 90 | ≥ 90 | ≥ 80 | ≥ 90 | ≥ 80 | ≥ 90 | safety for plant growth (discoloration, necrosis, wilt, malformation) (cucumber seedlings): safe for plant growth; inhibition at 1 ppm [9]: ≥ 80%; inhibition at 5 ppm [9]: ≥ 90%; inhibition at 1 ppm [10]: ≥ 80%; inhibition at 5 ppm [10]: ≥ 90%; inhibition at 1 ppm [11]: ≥ 80%; inhibition at 5 ppm [11]: ≥ 90%; Rate of chlorophyll content increase (%) [12]: 11%; Rate of growth rate increase (%) [12]: 8%; Rate of leaf area increase (%) [12]: 15%; pest or weed control at 5 ppm [13]: ≥ 90%; pest or weed control at 10 ppm [13]: ≥ 90%; inhibition at 1 ppm [14]: ≥ 80%; inhibition at 5 ppm [14]: ≥ 90% |
| CCOCOC(=O)c1cn(C2CC2)c2cc(Cl)c(F)cc2c1=O [Compound 144] | ≥ 90 | ≥ 90 | ≥ 80 | ≥ 90 | ≥ 80 | ≥ 90 | ≥ 80 | ≥ 90 | ≥ 80 | ≥ 90 | ≥ 80 | ≥ 90 | ≥ 80 | ≥ 90 | ≥ 90 | ≥ 90 | ≥ 80 | ≥ 90 | ≥ 80 | ≥ 90 | safety for plant growth (discoloration, necrosis, wilt, malformation) (cucumber seedlings): safe for plant growth; inhibition at 1 ppm [9]: ≥ 80%; inhibition at 5 ppm [9]: ≥ 90%; inhibition at 1 ppm [10]: ≥ 80%; inhibition at 5 ppm [10]: ≥ 90%; inhibition at 1 ppm [11]: ≥ 80%; inhibition at 5 ppm [11]: ≥ 90%; Rate of chlorophyll content increase (%) [12]: 18%; Rate of growth rate increase (%) [12]: 10%; Rate of leaf area increase (%) [12]: 13%; pest or weed control at 5 ppm [13]: ≥ 90%; pest or weed control at 10 ppm [13]: ≥ 90%; inhibition at 1 ppm [14]: ≥ 80%; inhibition at 5 ppm [14]: ≥ 90% |
| COCCOC(=O)c1cn(C2CC2)c2cc(SC)c(F)cc2c1=O [Compound 381, 2-methoxyethyl 1-cyclopropyl-6-fluoro-7-methylthio-4-oxo-1,4-dihydroquinoline-3-carboxylate] | ≥ 90 | ≥ 90 | ≥ 90 | ≥ 90 | ≥ 90 | ≥ 90 | ≥ 90 | ≥ 90 | ≥ 90 | ≥ 90 | ≥ 90 | ≥ 90 | ≥ 90 | ≥ 90 | ≥ 90 | ≥ 90 | ≥ 90 | ≥ 90 | ≥ 90 | ≥ 90 | safety for plant growth (discoloration, necrosis, wilt, malformation) (cucumber seedlings): safe for plant growth; inhibition at 1 ppm [9]: ≥ 90%; inhibition at 5 ppm [9]: ≥ 90%; inhibition at 1 ppm [10]: ≥ 90%; inhibition at 5 ppm [10]: ≥ 90%; inhibition at 1 ppm [11]: ≥ 90%; inhibition at 5 ppm [11]: ≥ 90%; pest or weed control at 5 ppm [13]: ≥ 90%; pest or weed control at 10 ppm [13]: ≥ 90%; inhibition at 1 ppm [14]: ≥ 90%; inhibition at 5 ppm [14]: ≥ 90% |
| CCOCCOC(=O)c1cn(C2CC2)c2cc(SCC)c(F)cc2c1=O [Compound 397] | ≥ 90 | ≥ 90 | ≥ 90 | ≥ 90 | ≥ 90 | ≥ 90 | ≥ 80 | ≥ 90 | ≥ 90 | ≥ 90 | ≥ 90 | ≥ 90 | ≥ 90 | ≥ 90 | ≥ 90 | ≥ 90 | ≥ 90 | ≥ 90 | ≥ 90 | ≥ 90 | safety for plant growth (discoloration, necrosis, wilt, malformation) (cucumber seedlings): safe for plant growth; inhibition at 1 ppm [9]: ≥ 90%; inhibition at 5 ppm [9]: ≥ 90%; inhibition at 1 ppm [10]: ≥ 80%; inhibition at 5 ppm [10]: ≥ 90%; inhibition at 1 ppm [11]: ≥ 90%; inhibition at 5 ppm [11]: ≥ 90%; pest or weed control at 5 ppm [13]: ≥ 90%; pest or weed control at 10 ppm [13]: ≥ 90%; inhibition at 1 ppm [14]: ≥ 80%; inhibition at 5 ppm [14]: ≥ 90% |
